Assay results reported in publication PMC5908784, “Extracellular loops 2 and 3 of the calcitonin receptor selectively modify agonist binding and efficacy” (Biochemical Pharmacology, 2018).
Positions count from the first letter of the chain named. pKi: −log10 of the molar value. Where no end group is shown, it is not given here.

Key:
Experiment in all cases: Homologous whole cell competition binding
Settings in all cases: homologous competition of 125I-sCT(8-32), whole cells, mean ± S.E.M., SEM
[1] = target: T1, hCTR I279A (Homo sapiens, UniProt P30988, I279A)
T1 construct: expressed in transfected cells
T1 sequence (P30988 25-474 I279A): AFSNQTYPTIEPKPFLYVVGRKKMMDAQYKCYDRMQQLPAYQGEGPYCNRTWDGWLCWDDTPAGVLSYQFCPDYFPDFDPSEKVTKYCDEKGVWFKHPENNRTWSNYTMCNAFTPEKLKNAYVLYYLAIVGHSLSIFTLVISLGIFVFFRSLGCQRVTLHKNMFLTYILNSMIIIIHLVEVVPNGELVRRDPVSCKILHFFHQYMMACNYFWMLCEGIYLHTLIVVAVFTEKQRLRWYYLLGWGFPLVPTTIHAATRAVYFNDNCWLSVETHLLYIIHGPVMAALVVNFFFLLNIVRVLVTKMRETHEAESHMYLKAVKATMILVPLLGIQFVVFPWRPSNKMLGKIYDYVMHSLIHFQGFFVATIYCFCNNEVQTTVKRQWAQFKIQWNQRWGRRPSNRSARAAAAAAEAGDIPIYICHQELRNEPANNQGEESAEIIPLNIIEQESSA
Outline: (§1)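 Whole cells expressing the mutant receptor were incubated overnight at 4 °C with ^125I-sCT(8-32) (25–100 pM, two concentrations) and serial dilutions of unlabelled sCT(8-32). Bound radioactivity was gamma-counted; nonspecific binding was defined with 1 μM sCT(8-32). IC50 was fitted by 3-parameter logistic and Cheng-Prusoff-corrected to pKi.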

[2] = target: T2, hCTR N288A (Homo sapiens, UniProt P30988, N288A)
T2 construct: expressed in transfected cells
T2 sequence (P30988 25-474 N288A): T1 sequence (P30988 25-474 I279A) with A255I, N264A
Outline: as §1

[3] = target: T3, hCTR R281A (Homo sapiens, UniProt P30988, R281A)
T3 construct: expressed in transfected cells
T3 sequence (P30988 25-474 R281A): T1 sequence (P30988 25-474 I279A) with A255I, R257A
Outline: as §1

[4] = target: T4, hCTR V358A (Homo sapiens, UniProt P30988, V358A)
T4 construct: c-Myc (N); expressed in transfected cells
T4 sequence (P30988 25-474 V358A): T1 sequence (P30988 25-474 I279A) with A255I, V334A
Outline: as §1

- pKi [1]: 9.72
- pKi [2]: 9.63
- pKi [3]: 9.07
- pKi [4]: 9.81
Substance: VLGKLSQELHKLQTYPRTNTGSGTP-NH2 [sCT(8-32)]
